From PubChem BioAssay AID290 (DTP/NCI, 2004)
“And” between values parts separate entries of the source, which are not always exact repeats. Equal values may be shown once. Inconclusive results are not listed.

System: mice, P1798 lymphosarcoma sc, survival or tumor weight T/C
Test: NCI In Vivo Anticancer Drug Screen. Data for tumor model P1798 Lymphosarcoma (subcutaneous) in unknown mice
Settings: endpoint: mean tumor weight, higher = larger tumour
Description: The antitumor activity of compounds was measured in mice bearing transplantable tumors. Survival or tumor size were measured and the results are expressed as the measurement made in the treated group (T) divided by the measurement made in the vehicle treated control group (C). The tumor model used in this assay is P1798 Lymphosarcoma (subcutaneous) in unknown mice

**Q.** What does the source list for `OCC1OC(n2cnc3c(Cl)ncnc32)C(O)C1O` (stereo not given)?
**A.** T/C (dose: 62.5 mg/kg/injection, schedule: Q01DX010 (ip), vehicle: carboxymethylcellulose (CMC)): 104 % of control; T/C (dose: 125.0 mg/kg/injection, schedule: Q01DX010 (ip), vehicle: carboxymethylcellulose (CMC)): 107 % of control; T/C (dose: 250.0 mg/kg/injection, schedule: Q01DX010 (ip), vehicle: carboxymethylcellulose (CMC)): 92 % of control; T/C (dose: 500.0 mg/kg/injection, schedule: Q01DX010 (ip), vehicle: carboxymethylcellulose (CMC)): 91 % of control and 95 % of control; T/C (dose: 1000.0 mg/kg/injection, schedule: Q01DX010 (ip), vehicle: carboxymethylcellulose (CMC)): 79 % of control

**Q.** `c1ccc(CNc2ncnc3[nH]ncc23)cc1` was tested. Which T/C (dose: 15.6 mg/kg/injection, schedule: Q01DX010 (ip), vehicle: carboxymethylcellulose (CMC)) did it give?
**A.** The T/C was 82 % of control.

**Q.** Which results are given for `Cn1c(N)nc2nc[nH]c2c1=S`?
**A.** T/C (dose: 3.1 mg/kg/injection, schedule: Q01DX010 (ip), vehicle: carboxymethylcellulose (CMC)): 105 % of control; T/C (dose: 6.3 mg/kg/injection, schedule: Q01DX010 (ip), vehicle: carboxymethylcellulose (CMC)): 59 % of control; T/C (dose: 10.0 mg/kg/injection, schedule: Q01DX010 (ip), vehicle: saline): 102 % of control; T/C (dose: 12.5 mg/kg/injection, schedule: Q01DX010 (ip), vehicle: carboxymethylcellulose (CMC)): 91 % of control; T/C (dose: 20.0 mg/kg/injection, schedule: Q01DX010 (ip), vehicle: saline): 99 % of control; T/C (dose: 25.0 mg/kg/injection, schedule: Q01DX010 (ip), vehicle: carboxymethylcellulose (CMC)): 101 % of control; T/C (dose: 40.0 mg/kg/injection, schedule: Q01DX010 (ip), vehicle: saline): 122 % of control; T/C (dose: 80.0 mg/kg/injection, schedule: Q01DX010 (ip), vehicle: saline): 114 % of control

**Q.** Which T/C (dose: 100.0 mg/kg/injection, schedule: Q01DX011 (sc), vehicle: steriod suspending solution) does the source give for `CC(C)=C(Br)CC[C@@H](C)[C@H]1CC[C@@]2(C)C3=C(CC[C@]12C)[C@@]1(C)CC[C@H](O)C(C)(C)[C@@H]1CC3` here?
**A.** Its T/C is 151 % of control.

**Q.** And the T/C (dose: 200.0 mg/kg/injection, schedule: Q01DX011 (sc), vehicle: steriod suspending solution)?
**A.** Its T/C is 186 % of control.

**Q.** How did the T/C (dose: 25.0 mg/kg/injection, schedule: Q01DX011 (ip), vehicle: carboxymethylcellulose (CMC)) turn out when `Cn1c(O)c(N=NC(N)=S)c2ccccc21` was run?
**A.** Its T/C is 206 % of control.

**Q.** And the T/C (dose: 50.0 mg/kg/injection, schedule: Q01DX011 (ip), vehicle: carboxymethylcellulose (CMC))?
**A.** The T/C was 117 % of control.

**Q.** What about the T/C (dose: 100.0 mg/kg/injection, schedule: Q01DX011 (ip), vehicle: carboxymethylcellulose (CMC)) of the same compound?
**A.** Its T/C is 87 % of control.

**Q.** Which T/C (dose: 5.0 mg/kg/injection, schedule: Q01DX010 (ip), vehicle: water) does the source give for `CCCNc1ncnc2[nH]ncc12` here?
**A.** Its T/C is 71 % of control.

**Q.** And the T/C (dose: 10.0 mg/kg/injection, schedule: Q01DX010 (ip), vehicle: water)?
**A.** Its T/C is 54 % of control.

**Q.** Which results are given for `Nc1nc(=S)c2ncn(C3OC(CO)C(O)C3O)c2[nH]1` (stereo not given)?
**A.** T/C (dose: 0.31 mg/kg/injection, schedule: Q01DX010 (ip), vehicle: carboxymethylcellulose (CMC)): 79 % of control; T/C (dose: 0.63 mg/kg/injection, schedule: Q01DX010 (ip), vehicle: carboxymethylcellulose (CMC)): 71 % of control; T/C (dose: 1.25 mg/kg/injection, schedule: Q01DX010 (ip), vehicle: carboxymethylcellulose (CMC)): 50 % of control; T/C (dose: 2.0 mg/kg/injection, schedule: Q01DX010 (ip), vehicle: saline): 55 % of control; T/C (dose: 2.5 mg/kg/injection, schedule: Q01DX010 (ip), vehicle: carboxymethylcellulose (CMC)): 31 % of control; T/C (dose: 4.0 mg/kg/injection, schedule: Q01DX010 (ip), vehicle: saline): 63 % of control

**Q.** For `O=C(O)C(=O)c1ccc(-c2ccccc2)cc1`, which T/C (dose: 31.0 mg/kg/injection, schedule: Q01DX010 (ip), vehicle: methylcellulose (MC)) is on record?
**A.** The T/C was 82 % of control.

**Q.** What about the T/C (dose: 62.5 mg/kg/injection, schedule: Q01DX010 (ip), vehicle: methylcellulose (MC)) of the same compound?
**A.** The T/C was 87 % of control.

**Q.** What about the T/C (dose: 125.0 mg/kg/injection, schedule: Q01DX010 (ip), vehicle: methylcellulose (MC)) of the same compound?
**A.** The T/C was 106 % of control.
